Reference: article PMC7696938, “Cinnamides Target Leishmania amazonensis Arginase Selectively” (Molecules, 2020)
“And” between values parts separate entries of the source, which are not always exact repeats. Equal values may be shown once. Read-outs that look alike come from different tables or passages of the source.

Legend:
[1] = target: T1, Leishmania amazonensis recombinant arginase (L-ARG) (Leishmania amazonensis, UniProt O96394); test: Arginase inhibition test, recombinant L-ARG (urea, Berthelot method); assay type: biochemical; design: Emax: dose or concentration left out as unconfirmed
Method: (§1) Recombinant L-ARG was expressed and purified as previously described. Briefly, Escherichia coli, containing arginase gene cloned in plasmid DNA, was grown in SOB (Super Optimal Broth) medium at 37 °C until it reached absorbance 0.6 at 600 nm. Then the recombinant L-ARG expression was induced with a final concentration of IPTG (isopropyl β-D-1-thiogalactopyranoside) 1 mM and MnSO4 10 mM for 3 h. The cells were harvested and lysed in 1 mL of buffer A (MOPS 100 mM, pH 7,2, NaCl 500 mM) containing PMSF (phenylmethanesulfonyl fluoride) 1 mM and 10% of CelLytic™ B. After lysis, the homogenate was centrifuged at 12,000× g for 10 min. Arginase in the supernatant was purified as previously described.
(§2) A stock solution (70 mM) was prepared in DMSO and stored at −20 °C for each compound just before the experiment. The inhibitory test was performed with 50 mM of L-arginine (pH 9.5), 50 mM CHES buffer (pH 9.5), and enzyme at 5 nM. The sample was incubated in a water bath at 37 °C for 15 min. Urea was quantified according to the Berthelot method, using commercial reagents. Briefly, the catalytic activity of the arginase reaction was stopped by transferring 2 μL of the reaction mixture into 150 μL of reagent I (20 mM phosphate buffer, pH 7, containing 60 mM Salicylate, 1 mM sodium nitroprusside, and >500 IU of urease). This mixture was incubated at 37 °C for 5 min. Next, 150 μL of reagent II (sodium hypochlorite 10 mM and NaOH 150 mM) was added, and the samples were incubated at 37 °C for 5 min. Measurement was taken at 600 nm using an Epoch 2 microplate reader (BioTek Instruments, Inc.). Two independent experiments were performed in triplicate until a coefficient of non-linear regression R^2 ≥ 0.95 was obtained. The sigmoidal model (log IC50) was used to determine IC50 and maximum effect (Emax) in GraphPad-Prism 6.01 software for Windows (San Diego, CA, USA).

[2] = test system: Leishmania amazonensis recombinant arginase (L-ARG); test: as above; assay type: biochemical; design: Emax: dose or concentration left out as unconfirmed; settings: for Selective Index: L-ARG over B-ARG (bovine IC50 vs L. amazonensis IC50)
Method: as §1, §2

[3] = target: T1, Leishmania amazonensis recombinant arginase (L-ARG); test: Determination of Ki, Kis and mechanism of inhibition of L-ARG (Dixon and Cornish-Bowden plots); assay type: biochemical; settings: for Mode of Inhibition: L-ARG; for Ki / Kis: L-arginine 25, 50, 100 mM, pH 9.5
Method: All reactions were performed in 50 mM CHES buffer, pH 9.5, containing variable concentrations of the substrate L-arginine (25, 50, and 100 mM) at pH 9.5. Inhibitors were tested at three different concentrations close to the IC50. All reactions were performed in triplicate in two independent experiments. Urea was quantified according to the Berthelot method using commercial reagents as previously described. The constant Ki was determined for competitive and mixed inhibitors, and Ki’ was determined uncompetitive and mixed using a Dixon and Cornish–Bowden plots. For non-competitive inhibitors, Ki and K’i values were the same, and y = 0 was determined to obtain that value.

[4] = test system: L. amazonensis promastigotes; test: Promastigote growth inhibition (MTT); assay type: cell-based; settings: Leishmania amazonensis, 78 h
Method: Promastigote forms of the strain MHO were inoculated initially in the concentration of 5 × 10^5 parasites/mL in M199 medium (Life Technologie, Carlsbad, CA, USA), pH 7.4, supplemented with 10% of fetal bovine serum, (50 µg/mL) streptomycin, and (100 U) penicillin at 24 °C. Cells were grown until they reached the stationary phase. After this, 998 μL of the culture at 5.0 × 10^5 cells/mL was incubated with 2 μL of the inhibitors (50 to 0.0005 mM) dissolved in DMSO to obtain final concentrations of 100 to 0.001 μM. Amphotericin B was used as a control of the cell growth inhibition, in a concentration varying from 60 to 0.0006 μM dissolved in DMSO. […] After this inhibition period, the surviving cells were washed twice with HBSS (Gibco), centrifuged at 2000× g for 10 min, and supernatant was removed. To verify the parasite viability, over the pellet of cells about 1000 µL of M199 medium content was added, with 5 mg/mL of MTT (3-(4,5-dimethylthiazol-2-yl)-2, 5-diphenyltetrazolium bromide, a tetrazole) (Sigma-Aldrich, St. Louis, MO, USA). Surviving parasites were exposed to MTT during 12 h at 34 °C in a CO2 chamber. After this period, the cells were centrifuged for 10 min at 2000× g and the supernatant was removed. Formazan crystals that were formed in the cells were dissolved with DMSO, the absorbance was read using an Epoch 2 Microplate Spectrophotometer at 600 nm.

bovine arginase (B-ARG) = target: bovine arginase (B-ARG); design: method as in PMID 27690022; settings: cited from earlier work
human arginase (h-ARG) = target: human arginase (h-ARG); design: method as in PMID 27690022; settings: cited from earlier work
[5] = target: T1, Leishmania amazonensis recombinant arginase (L-ARG); design: method as in PMID 30216691; settings: Table 2, unit inferred; read-out: IC50 inhibition of arginase, L. amazonensis; cited from earlier work
[6] = 50 mM L-arginine, pH 9.5, 37 °C, 15 min, read-out: IC50 (half inhibitory activity), L-ARG
[7] = Table 2, unit inferred, read-out: IC50 inhibition of arginase, L. amazonensis
[8] = read-out: Emax (maximal inhibitory activity)
[9] = Table 2, unit inferred, read-out: IC50 inhibition of arginase, Bovine

| Compound | IC50 [1, 6] | IC50 [1, 7] [µM] | Emax at 100 µM [1, 8] [%] | potency against L-ARG relative to human arginase ([2]; L-ARG IC50 vs human arginase IC50) [fold] | Selective Index [2] | Mode of Inhibition [3] | Ki [3] [µM] | IC50 [4] [µM] | Kis [3] [µM] | Emax [1, 8] [%] | IC50 (bovine arginase (B-ARG); [9]) [µM] | mode of inhibition of bovine arginase (bovine arginase (B-ARG)) | IC50 (human arginase (h-ARG)) | IC50 [5] [µM] | IC50 (bovine arginase (B-ARG); read-out: IC50, bovine arginase) [µM] |
| --- | --- | --- | --- | --- | --- | --- | --- | --- | --- | --- | --- | --- | --- | --- | --- |
| O=C(/C=C/c1ccc(O)c(O)c1)O[C@@H]1C[C@](O)(C(=O)O)C[C@@H](O)[C@H]1O [Chlorogenic acid, reference compound] |  |  |  |  | 1.3 |  |  |  |  |  | 10.6 ± 1.6 |  |  |  | ~10 |
| O=C(/C=C/c1ccc(O)c(O)c1)NCCc1ccc(O)c(O)c1 [Compound 11] | 1.8 ± 0.1 µM | 1.8 ± 0.1 | 81 ± 2 |  | 64 | Uncompetitive |  |  | 2.5 ± 0.2 |  | 115 ± 1.3 |  |  |  |  |
| O=C(/C=C/c1ccc(O)cc1)NCCc1ccc(O)c(O)c1 [Compound 13] | 2.5 ± 0.2 µM | 2.5 ± 0.2 | 82 ± 1 |  | 68 | Competitive | 1.6 ± 0.2 |  |  |  | 170.4 ± 1.7 |  |  |  |  |
| COc1cc(/C=C/C(=O)NCCc2ccc(O)c(O)c2)cc(OC)c1OC [Compound 14] | 2.4 ± 0.9 µM | 2.4 ± 0.9 | 81 ± 2 |  | 81 | Competitive | 1.2 ± 0.3 |  |  |  | 193.6 ± 1.4 |  |  |  |  |
| O=C(/C=C/c1ccccc1)NCCc1ccc(O)c(O)c1 [Compound 15] |  | 1.3 ± 0.1 |  |  | 30 | Mixed | 1.4 ± 0.2 |  | 5 ± 1 | 80 ± 1 | 39.3 ± 1.4 |  |  |  |  |
| O=C(NCCc1ccc(O)cc1)c1ccc(O)c(O)c1 [Compound 17] | 17.8 µM and 18 µM | 18 ± 3 | 68 ± 2 |  | 10 | Competitive | 11.4 ± 0.7 |  |  |  | 175.3 ± 1.5 |  |  |  |  |

Second part, led by results:

| IC50 [1, 6] | IC50 [1, 7] [µM] | Emax at 100 µM [1, 8] [%] | potency against L-ARG relative to human arginase ([2]; L-ARG IC50 vs human arginase IC50) [fold] | Selective Index [2] | Mode of Inhibition [3] | Ki [3] [µM] | IC50 [4] [µM] | Kis [3] [µM] | Emax [1, 8] [%] | Compound | IC50 (bovine arginase (B-ARG); [9]) [µM] | mode of inhibition of bovine arginase (bovine arginase (B-ARG)) | IC50 (human arginase (h-ARG)) | IC50 [5] [µM] | IC50 (bovine arginase (B-ARG); read-out: IC50, bovine arginase) [µM] |
| --- | --- | --- | --- | --- | --- | --- | --- | --- | --- | --- | --- | --- | --- | --- | --- |
| 6.9 ± 0.7 µM | 6.9 ± 0.7 | 79 ± 1 | 9 | 1 | Competitive | 3.9 ± 1 | 82.6 |  |  | O=C(/C=C/c1ccc(O)c(O)c1)NCCc1ccccc1 [CAPA, caffeic acid phenethyl amide] | 6.9 ± 1.3 | competitive inhibition | 60.3 µM and 60 µM |  |  |
|  |  |  |  | 58 |  |  |  |  |  | O=C(O)/C=C/c1ccc(O)c(O)c1 [Caffeic acid, reference compound] | 86.7 ± 8 |  |  | 1.5 ± 0.3 |  |
| 5.6 ± 0.4 µM | 5.6 ± 0.4 | 82 ± 2 |  | 4 | Competitive | 4.4 ± 1.1 |  |  |  | O=C(/C=C/c1ccc(O)c(O)c1)NCCc1ccc(O)cc1 [Compound 6] | 22.1 ± 1.6 |  |  |  |  |
| 6.5 ± 1.4 µM | 6.5 ± 1.4 | 75 ± 2 |  | 31 | Noncompetitive | 9.6 ± 0.7 |  | 9.6 ± 0.7 |  | COc1cc(/C=C/C(=O)NCCc2ccc(O)c(O)c2)ccc1O [Compound 12] | 198.7 ± 1.4 |  |  |  |  |
| 4 ± 1 µM | 4 ± 1 | 89 ± 3 |  | 10 | Mixed | 3.9 ± 0.4 |  | 27 ± 8 |  | COC(=O)C(Cc1ccc(O)c(O)c1)NC(=O)/C=C/c1ccc(O)c(O)c1 (centres unmarked) [Compound 18] | 41.9 ± 1.3 |  |  |  |  |
| 9 ± 1 µM | 9 ± 1 | 90 ± 3 |  | 4 | Mixed | 6.6 ± 0.3 |  | 28 ± 4 |  | COC(=O)C(CS)NC(=O)/C=C/c1ccc(O)c(O)c1 (centres unmarked) [Compound 19] | 37 ± 1.3 |  |  |  |  |
